Values of other authors as cited in patent publication US20190000795A1, “Methods of using cannabinoids and/or molecular similars for modulating, waking-up and/or disabling cellular functions involved in causing disease -- reinvigorating metabolism with anandamide, 2-arachidonoylglycerol and similarly acting compounds” (priority 2017, published 2019).
Read-outs that look alike come from different tables or passages of the source.

Assays:
GPR55 = GPR55 (Homo sapiens, UniProt Q9Y2T6)
Complex 1 = conditions: for Complex 1 activity, rapid and transient increase: below threshold around 10 μM
mitochondrion [1] = test system: mitochondrion
mitochondrion [2] = test system: mitochondrion; remark: listed apart in the source

Chain of GPR55 (Q9Y2T6 whole entry, species assumed): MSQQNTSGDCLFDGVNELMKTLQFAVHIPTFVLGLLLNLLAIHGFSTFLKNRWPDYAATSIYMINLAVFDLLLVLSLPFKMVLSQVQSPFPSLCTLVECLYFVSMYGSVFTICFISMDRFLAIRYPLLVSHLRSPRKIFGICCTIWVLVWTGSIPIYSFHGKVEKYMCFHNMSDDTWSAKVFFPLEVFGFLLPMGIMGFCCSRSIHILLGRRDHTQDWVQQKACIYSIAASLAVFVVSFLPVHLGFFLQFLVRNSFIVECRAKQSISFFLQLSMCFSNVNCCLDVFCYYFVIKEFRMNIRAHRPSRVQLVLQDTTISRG

In the case of `CCCCC/C=C\C/C=C\C/C=C\C/C=C\CCCC(=O)OC(CO)CO` [2AG, 2-arachidonoylglycerol], the “GPR55 Ca2+ flux activation” value (GPR55) is listed as “not”.
In the case of `CCCCC/C=C\C/C=C\C/C=C\C/C=C\CCCC(=O)NCCO` [AEA, N-arachidonoylethanolamine], the “concentration range of steady logarithmic decline of Complex 1 activity” value (Complex 1) is listed as 5-200 μM, the “effect on H2O2 production” value (mitochondrion [1]) is listed as “no effect” and the “O2 consumption at the mitochondrion” value (mitochondrion [2]) is listed as “decrease”. For the same compound, the “GPR55 Ca2+ flux activation” value (GPR55) was “Ca^2+ flux activation”.
For `CCCCCCC(C)(C)c1ccc([C@@H]2C[C@H](O)CC[C@H]2CCCO)c(O)c1` [CP 55 940], the “GPR55 Ca2+ flux activation” value (GPR55) is given as “not”.
In the case of `CCCCCCC(C)(C)c1cc(O)c2c(c1)OC(C)(C)[C@@H]1CC=C(CO)C[C@@H]21` [HU210], the “threshold concentration of sudden decrease of Complex 1 activity” value (Complex 1) is given as “around 10 μM”, the “Complex 1 activity, rapid and transient increase” value (Complex 1) is given as 25% and the “effect on H2O2 production” value (mitochondrion [1]; between 2 and 10 μM) is given as “increase”. The “O2 consumption at the mitochondrion” value (mitochondrion [2]) was “decrease”.
In the case of `CCCn1c(C)c(C(=O)c2cccc3ccccc23)c2ccccc21` [JWH015], the “GPR55 Ca2+ flux activation” value (GPR55) is given as “Ca^2+ flux activation”.
In the case of `CCCCC/C=C\C/C=C\C/C=C\C/C=C\CCCC(=O)OCCN` [O-AEA, O-arachidonoyl ethanolamine], the “GPR55 Ca2+ flux activation” value (GPR55) is given as “not” and the body temperature (mice) is given as “lowers body temperature”.
For `CCCCCCCCCCCCCCCC(=O)NCCO` [PEA, palmitoylethanolamide], the “GPR55 Ca2+ flux activation” value (GPR55) is given as “not”.
For `CCCCCc1cc(O)c2c(c1)OC(C)(C)[C@@H]1CCC(C)=C[C@@H]21` [THC, delta-9 tetrahydrocannabinol], the “threshold concentration of sudden decrease of Complex 1 activity” value (Complex 1) is given as “around 10 μM”, the “Complex 1 activity, rapid and transient increase” value (Complex 1) is given as 50% and the “Complex 2/3 inhibition, course of effect” value (Complex 2/3) is given as “more steady logarithmic concentration dependent effect”. The “effect on H2O2 production” value (mitochondrion [1]; between 2 and 10 μM) was “increase”, the “O2 consumption at the mitochondrion” value (mitochondrion [2]) was “decrease” and the “GPR55 Ca2+ flux activation” value (GPR55) was “Ca^2+ flux activation”.
For `CCCCC/C=C\C/C=C\C/C=C\C/C=C\CCCC(=O)N[C@H](C)CO` [methanandamide], the “GPR55 Ca2+ flux activation” value (GPR55) is listed as “Ca^2+ flux activation”.
